In patent publication US20160016907A1, “PYRIDINE DERIVATIVES AS MUSCARINIC M1 RECEPTOR POSITIVE ALLOSTERIC MODULATORS” (PFIZER INC., priority 2014, published 2016):

Each compound was assayed against T1, human M1 muscarinic acetylcholine receptors (Homo sapiens, UniProt P11229) (assay: M1 FLIPR assay (PAM, intracellular calcium)). Conditions: potentiation of EC10-EC30 acetylcholine, values marked a: geometric mean of ≧7 determinations, read-out: M1 PAM Inflection Point (μM) Geometric mean of 2-6 determinations (unless otherwise indicated).
T1 sequence (P11229 1-460): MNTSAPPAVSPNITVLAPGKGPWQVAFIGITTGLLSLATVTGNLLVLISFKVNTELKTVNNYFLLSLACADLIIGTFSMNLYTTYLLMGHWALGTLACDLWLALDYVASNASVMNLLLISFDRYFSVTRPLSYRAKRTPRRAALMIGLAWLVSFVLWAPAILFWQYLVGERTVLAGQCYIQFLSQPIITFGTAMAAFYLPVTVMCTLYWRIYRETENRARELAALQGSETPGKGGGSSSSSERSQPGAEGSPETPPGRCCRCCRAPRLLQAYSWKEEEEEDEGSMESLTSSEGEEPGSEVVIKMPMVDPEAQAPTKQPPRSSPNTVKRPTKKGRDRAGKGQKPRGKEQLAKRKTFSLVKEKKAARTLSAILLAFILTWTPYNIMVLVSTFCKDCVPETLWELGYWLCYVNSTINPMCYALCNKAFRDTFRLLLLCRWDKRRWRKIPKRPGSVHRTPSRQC
Type: cell-based
Method: This assay was designed to select and characterize compounds that affect the activity of human M1 muscarinic acetylcholine receptors (Similar M1 PAM FLIPR assays can be found, for example, at U.S. Pat. No. 8,664,234). Human M1 receptors were stably expressed in Chinese hamster ovary (CHO) cells (HD Bioscience). The effect of test compounds on intracellular calcium was measured on an FLIPR Tetra (Molecular Devices) using the Fluo-8, AM calcium dye (Molecular Probes) with a red dye quenching agent (Sigma).
CHO cells expressing hM1 cells had been previously cultured and frozen in assay ready vials. Cell vials were thawed, then plated at a density of 10,000 cells per well in a 384 well black wall, clear bottom plate (Greiner #781090) and incubated overnight at 37 degrees C. with 5% CO2. Cells were grown and plated in F12 nutrient media (Gibco BRL #21700-075) supplemented with 10% FBS (Hyclone #CH30160.03) and Pen/Strep (Gibco #15070-063).
After overnight incubation, cell plates were removed from the incubator and the growth media was discarded and replaced with loading solution containing the following: 2 μM Fluo-8-AM (Molecular Probes #F14242), 2 mM Probenecid (Sigma #P8761), lx Acid Red 1 (Sigma #210633), in HBSS buffer containing (grams/L): 0.1 CaCl2, 0.1 MgCl2*6H2O, 0.049 MgSO4, 0.4 KCl, 0.06 KH2PO4, 8.06 NaCl, 0.12 Na2HPO4*12H2O, 1.1 D-glucose*H2O, 0.35 NaHCO3, 4.766 HEPES, pH 7.4. The plate was incubated in the loading solution at 37 degrees C. in the dark for 1 hour.
Test compounds were initially prepared as 100% DMSO stock solutions, then transferred and serially diluted in 384-well compound plates (Greiner #784201). Each compound was tested at 10 concentrations in duplicate per experiment. Positive and negative controls for positive allosteric modulator evaluation were 30 μM acetylcholine (Ach) and an EC10-EC30 concentration of acetylcholine, approximately 2 nM but could be adjusted for each experiment to maintain the EC10-EC30 range.
After the 1-hour dye loading incubation, test compounds were added to the cell plate containing Fluo-8. Approximately 10 minutes after compound addition, an EC10-EC30 concentration of acetylcholine was added to each well and the fluorescence measured to determine the PAM potentiation of the compound.
Data was exported from the FLIPR Tetra as maximum fluorescence/minimum fluorescence for each well. The percent effect for each compound well was determined using the mean values for the positive and negative controls on each plate for each read. Percent effect was 100*(compound negative control)/(positive control negative control). Dose response curves were fitted to the compound percent effect data using a 4-parameter logistic fit model to determine PAM (positive allosteric modulator) Inflection Point values. Compounds with inverted U dose response curves had the concentrations greater than the concentration giving the peak response excluded from the fit. Data was reported as Inflection Point. The compounds of Examples 1-72 had activity according to this assay, generally with an Inflection Point (IP) of 10 μM or less (using Inflection Point as a measure of activity). Such a result is indicative of the intrinsic activity of the compounds of the invention as M1 allosteric modulators.

Row | SMILES | EC50 [µM]
1 | Cc1nc(-c2ccc(Cc3cc(C(=O)N[C@H]4CCCC[C@@H]4O)ncc3C)cc2)co1 [Example 23, N-[(1S,2S)-2-hydroxycyclohexyl]-5-methyl-4-[4-(2-methyl-1,3-oxazol-4-yl)benzyl]pyridine-2-carboxamide] | 0.363
2 | Cc1cnc(NC(=O)c2cc(Cc3ccc(-n4cccn4)cc3)c(C)cn2)nc1 [Example 24, 5-methyl-N-(5-methylpyrimidin-2-yl)-4-[4-(1H-pyrazol-1-yl)benzyl]pyridine-2-carboxamide] | 4.39
3 | COc1ccc(Cc2cc(C(=O)N[C@H]3CCCC[C@@H]3O)nc(C)c2Cl)cc1 [Example 25, 5-chloro-N-[(1S,2S)-2-hydroxycyclohexyl]-4-(4-methoxybenzyl)-6-methylpyridine-2-carboxamide] | 1.14
4 | Cc1cnc(C(=O)NCC2(O)CCCC2)cc1Cc1ccc(-n2cccn2)cc1 [Example 27, N-[(1-hydroxycyclopentyl)methyl]-5-methyl-4-[4-(1H-pyrazol-1-yl)benzyl]pyridine-2-carboxamide] | 1.55
5 | Cc1cnc(C(=O)N[C@H]2CC[C@@H](O)CC2)cc1Cc1ccc(-n2cccn2)cc1 [Example 29, N-(cis-4-hydroxycyclohexyl)-5-methyl-4-[4-(1H-pyrazol-1-yl)benzyl]pyridine-2-carboxamide] | 3.82
6 | Cc1cnc(C(=O)NCC2CCOCC2)cc1Cc1ccc(-n2cccn2)cc1 [Example 32, 5-methyl-4-[4-(1H-pyrazol-1-yl)benzyl]-N-(tetrahydro-2H-pyran-4-ylmethyl)pyridine-2-carboxamide] | 4.6
7 | Cc1cnc(C(=O)NC2CCOCC2)cc1Cc1ccc(-n2cccn2)cc1 [Example 33, 5-methyl-4-[4-(1H-pyrazol-1-yl)benzyl]-N-(tetrahydro-2H-pyran-4-yl)pyridine-2-carboxamide] | 3.44
8 | Cc1cnc(C(=O)NCC2CCCO2)cc1Cc1ccc(-n2cccn2)cc1 (stereo not shown) [Example 35, 5-methyl-4-[4-(1H-pyrazol-1-yl)benzyl]-N-(tetrahydrofuran-2-ylmethyl)pyridine-2-carboxamide] | 2.73
9 | CC[C@@H](CO)NC(=O)c1cc(Cc2ccc(-n3cccn3)cc2)c(C)cn1 [Example 39, N-[(2S)-1-hydroxybutan-2-yl]-5-methyl-4-[4-(1H-pyrazol-1-yl)benzyl]pyridine-2-carboxamide] | 4.83
10 | Cc1cnc(C(=O)NCC2CC2)cc1Cc1ccc(-n2cccn2)cc1 [Example 40, N-(cyclopropylmethyl)-5-methyl-4-[4-(1H-pyrazol-1-yl)benzyl]pyridine-2-carboxamide] | 9.64
11 | Cc1cnc(C(=O)NCC(=O)N(C)C)cc1Cc1ccc(-n2cccn2)cc1 [Example 41, N-[2-(dimethylamino)-2-oxoethyl]-5-methyl-4-[4-(1H-pyrazol-1-yl)benzyl]pyridine-2-carboxamide] | 8.03
12 | Cc1cnc(C(=O)NCC2(O)CCC2)cc1Cc1ccc(-n2cccn2)cc1 [Example 44, N-[(1-hydroxycyclobutyl)methyl]-5-methyl-4-[4-(1H-pyrazol-1-yl)benzyl]pyridine-2-carboxamide] | 2.7
13 | COc1ccc(Cc2cc(C(=O)N[C@H]3CCCC[C@@H]3O)ncc2C)cc1 [Example 50, N-[(1S,2S)-2-hydroxycyclohexyl]-4-(4-methoxybenzyl)-5-methylpyridine-2-carboxamide] | 3.48
14 | O=C(N[C@H]1CCOC[C@@H]1O)c1cc(Cc2ccc(-n3cccn3)cc2)c(Cl)cn1 [Example 52, 5-chloro-N-[(3R,4S)-3-hydroxytetrahydro-2H-pyran-4-yl]-4-[4-(1H-pyrazol-1-yl)benzyl]pyridine-2-carboxamide] | 0.187
15 | Cc1c[n+]([O-])c(C(=O)N[C@H]2CCOC[C@@H]2O)cc1Cc1ccc(-n2cccn2)cc1 [Example 53, N-[(3R,4S)-3-hydroxytetrahydro-2H-pyran-4-yl]-5-methyl-4-[4-(1H-pyrazol-1-yl)benzyl]pyridine-2-carboxamide 1-oxide] | 0.271

Further lines, results first:

Row | EC50 [µM] | SMILES
16 | > 5.99 | CO[C@H]1CCCC[C@@H]1NC(=O)c1cc(Cc2ccc(-n3cccn3)cc2)c(C)cn1 [Example 22, N-[(1S,2S)-2-methoxycyclohexyl]-5-methyl-4-[4-(1H-pyrazol-1-yl)benzyl]pyridine-2-carboxamide]
17 | 5.04 | Cc1cnc(C(=O)N[C@H]2C[C@H](CO)C2)cc1Cc1ccc(-n2cccn2)cc1 [Example 26, N-[trans-3-(hydroxymethyl)cyclobutyl]-5-methyl-4-[4-(1H-pyrazol-1-yl)benzyl]pyridine-2-carboxamide]
18 | 4.77 | Cc1cnc(C(=O)NC2CC3(COC3)C2)cc1Cc1ccc(-n2cccn2)cc1 [Example 28, 5-methyl-N-(2-oxaspiro[3.3]hept-6-yl)-4-[4-(1H-pyrazol-1-yl)benzyl]pyridine-2-carboxamide]
19 | 1.12 | Cc1cnc(C(=O)N[C@H]2C[C@@](C)(O)C2)cc1Cc1ccc(-n2cccn2)cc1 [Example 30]
20 | 8.63 | Cc1noc(CNC(=O)c2cc(Cc3ccc(-n4cccn4)cc3)c(C)cn2)n1 [Example 31, 5-methyl-N-[(3-methyl-1,2,4-oxadiazol-5-yl)methyl]-4-[4-(1H-pyrazol-1-yl)benzyl]pyridine-2-carboxamide]
21 | 6.65 | Cc1cnc(C(=O)NC[C@H](C)O)cc1Cc1ccc(-n2cccn2)cc1 [Example 36, N-[(2S)-2-hydroxypropyl]-5-methyl-4-[4-(1H-pyrazol-1-yl)benzyl]pyridine-2-carboxamide]
22 | 3.56 | Cc1cnc(C(=O)N[C@@H]2CCCCNC2=O)cc1Cc1ccc(-n2cccn2)cc1 [Example 37, 5-methyl-N-[(3R)-2-oxoazepan-3-yl]-4-[4-(1H-pyrazol-1-yl)benzyl]pyridine-2-carboxamide]
23 | 3.63 | Cc1cnc(C(=O)N[C@H](CO)C(C)C)cc1Cc1ccc(-n2cccn2)cc1 [Example 38, N-[(2S)-1-hydroxy-3-methylbutan-2-yl]-5-methyl-4-[4-(1H-pyrazol-1-yl)benzyl]pyridine-2-carboxamide]
24 | 8.13 | Cc1cnc(C(=O)NCc2ccon2)cc1Cc1ccc(-n2cccn2)cc1 [Example 42, 5-methyl-N-(1,2-oxazol-3-ylmethyl)-4-[4-(1H-pyrazol-1-yl)benzyl]pyridine-2-carboxamide]
25 | 9.25 | Cc1cnc(C(=O)NC[C@H]2CCCO2)cc1Cc1ccc(-n2cccn2)cc1 [Example 43, 5-methyl-4-[4-(1H-pyrazol-1-yl)benzyl]-N-[(2R)-tetrahydrofuran-2-ylmethyl]pyridine-2-carboxamide]
26 | 7.21 | Cc1cnc(C(=O)NCC2CCO2)cc1Cc1ccc(-n2cccn2)cc1 (stereo not shown) [Example 45, 5-methyl-N-(oxetan-2-ylmethyl)-4-[4-(1H-pyrazol-1-yl)benzyl]pyridine-2-carboxamide]
27 | 3.5 | Cc1cnc(C(=O)NC2CCC(F)(F)C2)cc1Cc1ccc(-n2cccn2)cc1 (stereo not shown) [Example 48, N-(3,3-difluorocyclopentyl)-5-methyl-4-[4-(1H-pyrazol-1-yl)benzyl]pyridine-2-carboxamide]
28 | 2.83 | Cc1cnc(C(=O)N[C@H]2CCCC[C@@H]2O)cc1Cc1ccc(Cl)nc1 [Example 51, 4-[(6-chloropyridin-3-yl)methyl]-N-[(1S,2S)-2-hydroxycyclohexyl]-5-methylpyridine-2-carboxamide]
